{"source": "patent US20120005765A1", "about": "“ANIMAL MODEL FOR PARKINSON'S DISEASE” (Saint Louis University, priority 2010, published 2012)", "key": {"PC12 cells": {"system": "PC12 cells", "test": "DOPAL toxicity in vitro, viable PC12 cell count (trypan blue)", "details": "for PC 12 cells/well × 103: rat", "experimental": "Determination of DOPAL toxicity in vitro Toxicity experiments were essentially as described previously. PC12 cultures were initially expanded in T-75 flasks with 20 ml Dulbecco's Modified Eagle's Medium supplemented with 4.5 g/l glucose, 4 mM L-glutamine, 5% fetal calf serum, 10% horse serum, 1000 units/l penicillin, and 100 mg/l streptomycin. Cells were transferred to six well culture plates with 2 ml media and grown to 1.5×10^5 cells/well, treated with 50 ng/ml nerve growth factor (NGF), and maintained in NGF-containing media for 7 d prior to experimentation. The medium was changed every 2-3 d. […] During the experiments, the medium was replaced once a day. Cells were detached with buffered saline containing EDT A, centrifuged at 200×g and resuspended in trypan blue for counting of viable cells. […] DOPAL and other compounds were added as described in the description of the figure and examples. Data was analyzed by ANOVA.\nDOPAL, as well as other physiologically metabolites and adducts, were added to PC12 cells in culture at concentrations that were physiologically relevant."}, "α-synuclein": {"molecular_target": "T1, α-synuclein (Rattus norvegicus, UniProt P37377)", "T1 construct": "from tissue; host or cells: substantia nigra of Sprague-Dawley rats", "test": "DOPAL-triggered α-synuclein aggregation in vivo, intranigral injection, Western blot", "details": "rat SN injected with 1 μg or 0.2 μg DOPAL, 1 and 4 hours", "text": "Western blot of DOPAL-triggered AS aggregation in vivo Intranigral DOPAL injections and tissue preparation for Western blot. The housing and nutrition of the rats used in this study and all procedures performed on them conformed to standards set forth in the Guide for the Care and Use of Laboratory Animals of the National Research Council (National Academy Press, 1996). The experimental protocols reported herein were reviewed and approved by the Animal Care Committee of the Saint Louis University.\nThe details of the surgical and immunohistochemical methods have been previously described (Burke et al., Brain Res 989:205-213, 2003). Briefly, 2-month-old Sprague-Dawley rats (300 g; Harlan, Indianapolis, Ind., USA) were deeply anesthetized with 4% induction and maintained with 1% isoflurane. The heads of the rats were fixed in a stereotaxic apparatus (David Kopf, Tujunga, CA, USA). […]\nRats for Western blot analysis were killed after 4 h by injecting pentobarbital (100 mg/kg, IP). […] The black microspheres were identified in the pellets and supernatants were analyzed with Western blot as described above using AS 202 and J3-actin antibodies. For the 4-h 1.0-μg DOPAL and control SN injections, the density of the bands on the blot was determined using the UnScan it program (Silk Scientific, Orem, Utah, USA). The results were expressed as units of AS aggregate/unit of actin. […]"}, "rats": {"system": "rats", "test": "Rotational asymmetry after apomorphine", "type": "in vivo, rat", "details": "apomorphine 0.4 mg/kg, n=6, p, 0.05 vs control rats", "experimental": "Determination of DOPAL-induced Parkinson's disease-like behavior Injections of DOPAL or ALDH1A1 antisense oligo into rat SN. To determine if increased levels of DOPAL in SN produces a behavioral model of PD, 3 groups of rats were tested: unilateral SN injection of 4 μg DOPAL in 6 rats; unilateral SN injection of 0.56 μg antisense oligonucleotide (oligo) targeted to aldehyde dehydrogenase (ALDH1A1) mRNA, the DOPAL catabolic enzyme in 3 rats; 5 non-injected rats. After 5-7 weeks, rats were injected with apomorphine (0.4 mg/kg, subcutaneously) and rotational asymmetry determined in each group just prior to sacrifice. After the brains were fixed and sectioned, the SN, and forebrain were stained immunohistochemically for tyrosine hydroxylase immunoreactivity (THir). See Section 3.\nDetermination of rotational asymmetry. Rats first were injected subcutaneously with the dopamine agonist apomorphine (0.4 mg/kg) dissolved in 0.1 ascorbate saline solution. After waiting 5 min in their home cage, they were placed in a hemispheric rotation bowl 40 cm wide and 20 cm deep. Rotational behavior was then determined for 30 min and the number of ipsilateral and contralateral turns quantified by observation.\nRotational asymmetry was assessed to quantify the effect of unilateral depletions of striatal dopamine from disruptions of nigrostriatal circuitry. The rotational asymmetry behavior of rats (n=6) changed dramatically after injections with DOPAL (FIG. 5).\nBehavioral asymmetry is considered the standard behavioral test for rodent models of Parkinson's disease. The column on the right is a summary of all the behaviors recorded in the rotational asymmetry test for all the rats ([…])."}}, "note": "Entries after “also recorded” stand apart in the source; their conditions may differ.", "data": [{"molecule": "O=CCc1ccc(O)c(O)c1", "note": "[DOPAL, 3,4-dihydroxyphenylacetaldehyde]", "values": [{"measurement": "toxic in vitro at physiological levels", "setting": "PC12 cells", "result": "toxic"}, {"measurement": "PC 12 cells/well × 103", "setting": "PC12 cells; 6.6 μM", "result": "105 ± 12", "unit": "b cells/well × 103"}, {"measurement": "PC 12 cells/well × 103", "setting": "PC12 cells; 30 μM", "result": "107 ± 10", "unit": "b cells/well × 103"}, {"measurement": "PC 12 cells/well × 103", "setting": "PC12 cells; 66 μM", "result": "100 ± 5", "unit": "a cells/well × 103"}, {"measurement": "aggregation of α-synuclein in vivo", "setting": "α-synuclein", "result": "triggers a selective dose and time dependent aggregation; also recorded: even small amounts of DOPAL still aggregate α-synuclein"}, {"measurement": "rotational asymmetry after unilateral DOPAL injection into SN", "setting": "rats", "result": "significantly preferred turning towards the side of the injection; also recorded: turning significantly towards the side of DOPAL injections"}]}]}
